According to article PMC4801207, “Characterisation of Signalling by the Endogenous GPER1 (GPR30) Receptor in an Embryonic Mouse Hippocampal Cell Line (mHippoE-18)” (PLoS ONE, 2016):

Molecular target: T1, GPER1 (GPR30) (Mus musculus, UniProt Q8BMP4)
T1 construct: full-length endogenous receptor, native in mHippoE-18 immortalized embryonic mouse hippocampal cell line (CELLutions Biosystems); cells also express moderate ERalpha and ERbeta
T1 sequence (Q8BMP4 1-375): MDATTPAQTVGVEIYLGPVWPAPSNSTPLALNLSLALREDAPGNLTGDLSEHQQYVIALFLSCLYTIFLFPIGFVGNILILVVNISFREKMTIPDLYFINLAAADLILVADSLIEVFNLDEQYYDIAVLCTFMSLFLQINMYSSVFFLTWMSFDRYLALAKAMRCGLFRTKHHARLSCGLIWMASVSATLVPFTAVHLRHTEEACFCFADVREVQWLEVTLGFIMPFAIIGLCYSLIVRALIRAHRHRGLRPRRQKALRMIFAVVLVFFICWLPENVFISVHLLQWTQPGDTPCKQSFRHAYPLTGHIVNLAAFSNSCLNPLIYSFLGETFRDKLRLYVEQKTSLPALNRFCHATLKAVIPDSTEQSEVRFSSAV
Test: cAMP accumulation, radiometric PKA binding assay, mHippoE-18 cells
Assay type: cell-based
Conditions: agonist; potentiation of 10 μM forskolin-stimulated cAMP, 100 μM IBMX, 20 min; endogenous receptor, no antagonist

`CC(=O)c1ccc2c(c1)[C@H]1C=CC[C@H]1[C@@H](c1cc3c(cc1Br)OCO3)N2` (racemic) [G1] was tested, and the EC50 was 0.52 nM.

`C[C@]12CC[C@@H]3c4ccc(O)cc4CC[C@H]3[C@@H]1CC[C@@H]2O` [17β-Estradiol] showed an EC50 of 1.1 nM.

`C[C@]12CC[C@@H]3c4ccc(O)cc4C[C@@H](CCCCCCCCC[S+]([O-])CCCC(F)(F)C(F)(F)F)[C@H]3[C@@H]1CC[C@@H]2O` (stereo partly drawn) [ICI 182,780, 7α, 17β-[9-[(4,4,5,5,5-Pentafluoropentyl)sulfinyl]nonyl]estra-1,3,5(10)-triene-3,17-diol] gave an EC50 of 3.6 nM.
